Columns and labels:
Assay type in all cases: cell-based, human
MCF7 cells [1] = experiment: Flow cytometric analysis of drug-treated MCF7 cells; details: 50 nM, 2-3 days
Description: Cellular changes are induced by treatment with moderate doses of doxorubicin and Taxol in breast tumor-derived human cell lines. MCF7 cells were treated for 2-3 days with 50 nM doxorubicin or Taxol (doses that induce growth inhibition and cellular death as measured by flow cytometry; as described by, e.g., Dolbeare et al., 1983, Proc. Natl. Acad. Sci. U.S.A. 80:5573-77) and then were stained for SA-β-Gal expression 10-11 days after release from the drug.

MCF7 cells [2] = experiment: p53 and p21CIPI/WAF1 immunostaining with image analysis in MCF7 cells; details: MCF7 treated for 3 days with doxorubicin
Excerpt: The expression of proteins associated with senescence or apoptosis are quantitated by image analysis using a suitable primary antibody (such as Ab-2 for p53, or Ab-1 for WAF1, HSP60, or caspase 3), secondary antibody (such as rabbit anti-mouse IgG), and tertiary ABC complex.
Tertiary ABC complexes are visualized by treating the sections with diaminobenizidine (DAB) stain under appropriate conditions. In a second step, the tissue is counterstained with another optical enhancement factor, preferably ethyl green. The resulting preparation has green nuclei with varying degrees of brown diaminobenzidine (DAB) precipitate localized to the nuclei (and indicating the level of expression of p53, p21, p16, WAF1, HSP60, or caspase-3 protein). […] Spectral studies have shown that the ethyl green stain offers good spectral separation from the DAB precipitate of the immunoperoxidase technique such that different features of the image can be readily separated by filtering at two different wavelengths. […]
MCF7 cells were treated for 3 days with doxorubicin and then stained for p53 and p21^CIPI/WAF1 expression. Cells were cultured, stained, and analyzed as described above for SA-β-Gal using appropriate antibodies.

MCF7 cells [3] = experiment: SA-β-Gal staining of drug-treated MCF7 cells; details: treated 2-3 days with 50 nM doxorubicin or Taxol, stained 10-11 days after release from the drug
Description: Cells were washed in PBS, fixed for 3-5 minutes at room temperature in 2% formaldehyde and 0.2% glutaraldehyde (or in 3% formaldehyde alone), washed, and incubated at 37° C. in fresh senescence-associated β-Gal (SA-β-Gal) staining solution (1 mg/ml 5-bromo-4-chloro-3-indolyl β-D-galactoside (X-Gal), 20 mg/ml dimethylformamide; 40 mM citric acid/sodium phosphate, pH 6.0; 5 mM potassium ferrocyanide; 5 mM potassium ferricyanide; 150 mM NaCl; 2 mM MgCl2. Staining was evident following 2-4 hours of incubation and maximal staining was reached after in 12-16 hours. To detect lysosomal β-Gal, the staining solution was prepared with citric acid/sodium phosphate at pH 4.0 (Baselga et al., 1999, Proceedings of AACR NCI EORTC International Conference, Abstract 98).
Red and green filters are suitable for practice of the invention. For SA-β-Gal, a green filter (500 nm) is used to determine the total cytoplasmic area stained with red eosin and compared with the blue area stained for SA-β-Gal (600 nm) as determined using a red filter. […] It is recognized that there are various other staining or optical enhancement methods and filtering methods which can be used to optically enhance one particular area or feature over another cell feature (such as Fast green and eosin).
Cellular changes are induced by treatment with moderate doses of doxorubicin and Taxol in breast tumor-derived human cell lines. […]

SMILES | Cellular outcome in flow cytometry histogram / SA-β-Gal+ morphology (MCF7 cells [1]) | Cells stained for p21CIPI/WAF1 (% Cells) (MCF7 cells [2]) | Cells stained for p53 (% Cells) (MCF7 cells [2]) | Percentage of Cells Expressing SA-β-Gal (MCF7 cells [3])
COc1cccc2c1C(=O)c1c(O)c3c(c(O)c1C2=O)C[C@@](O)(C(=O)CO)C[C@@H]3O[C@H]1C[C@H](N)[C@H](O)[C@H](C)O1 [Doxorubicin, doxorubicin] | resulted in senescence and blocks at G1, G2, and G2M | 50.81 ± 6 % Cells | 23.93 ± 7 % Cells | 24%
CC(=O)O[C@H]1C(=O)[C@@]2(C)[C@H]([C@H](OC(=O)c3ccccc3)[C@]3(O)C[C@H](OC(=O)[C@H](O)[C@@H](NC(=O)c4ccccc4)c4ccccc4)C(C)=C1C3(C)C)[C@]1(OC(C)=O)CO[C@@H]1C[C@@H]2O [Taxol] | apoptosis is evident by the hypodiploid peak |  |  | 13%
